One series relates to CML BM LT-HSCs. In words: Cell cycling in mouse CML BM LT-HSCs. Format: cell-based. As to conditions: 500 nM, 72 h. The procedure:
(§1) After transduction performed as above, GFP+ cells selected at 48 h were exposed to NIL (2 μM and 5 μM, Novartis) for another 72 h, and analyzed using assays for cell growth, apoptosis, cell cycle, CFC and CFC replating. Human HSCs and mouse LT-HSCs were also treated with CpG-miR-126 inhibitor or CpG-scrRNA (500 nM), with or without NIL (5 μM), for 72 h and analyzed for cell growth, apoptosis, cell cycle and CFC. Human CML HSCs co-cultured with control or miR-126 KD HUVECs and mouse CML LT-HSCs co-cultured with control or miR-126 KD ECs for 96 h, with or without NIL (5 μM), were also analyzed for cell growth, apoptosis, cell cycle and CFC. Cell growth was measured by Lumino Glo (Promega). Apoptosis was measured by labeling cells with Annexin V-PE or FITC or APC and 4, 6-diamidino-2-phenylindole (DAPI) (all from BD-PharMingen, San Diego, Calif.) and analyzed by flow cytometry. Cell cycle was analyzed by Ki-67-Alexa Fluor 647 (B56, BD) and DAPI labeling based on the manufacturer's protocol. Cells were also exposed to EdU (C10640, Invitrogen) for 2 h and EdU staining was analyzed according to the manufacturer's protocol. Cell proliferation was also measured by CFSE staining (Molecular probes) based on the manufacturer's protocol. […]

A further series concerns WT B6 mice. In words: Hematologic toxicity in normal WT B6 mice.
A further series concerns normal HSCs. In words: Cell cycling (EdU and DAPI) in human normal HSCs. It counts as cell-based. Conditions: 500 nM, compared to CpG-scrRNA-treated controls. How it is done: as §1
Another series has as its system CML LSCs. Description: In vivo treatment of CML mice (SCLtTA/BCR-ABL BM cells transplanted into congenic B6 mice). The arrangement: species or system mouse. How it is done: Next, we transplanted BM cells from SCLtTA/BCR-ABL mice (CD45.2) into congenic B6 mice (CD45.1). Following confirmation of CML development at 4 weeks after transplantation, mice were treated as above with scrRNA, inhibitor, scrRNA+NIL, or inhibitor+NIL for 3 weeks.

In a further series the test system is normal hematopoiesis. Description: Transplantation of BM cells from treated WT B6 mice into recipient mice. Conditions: recipients of BM cells from donor mice treated with scrRNA or inhibitor, 16 weeks after transplantation. It counts as in vivo, mouse.
Another series has as its system normal BM LT-HSCs. In words: Cell cycling in mouse normal BM LT-HSCs. It counts as cell-based. As to conditions: 500 nM, 72 h. The procedure:
as §1

The next series relates to miR-126. In words: In vivo miR-126 down-regulation in sorted LT-HSCs and ECs. Also on record: species or system mouse. As to conditions: normal and CML mice, 5 mg/kg/day iv daily for 3 days; QPCR. How it is done:
Next, we evaluated CpG-miR-126 inhibitor-Cy3 uptake in mouse LT-HSCs and ECs in vitro and in vivo. […]
To measure the miRNA and mRNA expression, total RNA was extracted using the miRNeasy Mini Kit (Qiagen, Valencia, Calif.). For miRNA expression, reverse transcription using MultiScribe™ Reverse Transcriptase and Q-PCR analysis using Taqman assays (Applied Biosystems) were performed according to the manufacturer's protocol. RNU44 and snoRNA234 was used as internal controls for human and mouse miRNA respectively. For mRNA expression, first-strand cDNA was synthesized using the SuperScript III First-Strand Kit and then QPCR was performed using TaqMan Gene Expression Assays (Thermo Fisher). BCR-ABL expression in human and mouse samples were measured with primer and probe sequences for BCR-ABL (B3A2 or B2A2), as previously described^46. Results are presented as log 2-transformed ratio according to the 2−ΔCt method (ΔCt=Ct of target−Ct of reference).

Another series deals with CML HSCs. In words: Cell cycling (EdU and DAPI) in human CML HSCs. Format: cell-based. Conditions: 500 nM, compared to CpG-scrRNA-treated controls. How it is done: as §1
Where [1] appears, read: WT B6 mice, 5 mg/kg/day i.v. for 3 weeks, compared with scrRNA-treated control mice.

Protocol for normal hematopoiesis: We treated WT B6 mice with CpG-scrRNA (scrRNA) or CpG-miR-126 inhibitor (inhibitor, 5 mg/kg/day i.v.) for 3 weeks, after which we collected their BM cells and transplanted them into recipient mice (3×10^5 BM cells/mouse).

“5′ G*G*T GCA TCG ATG CAGG*G*G* G*G xxxxx mCmGmC mAmUmU mAmUmU mAmCmU mCmAmC mGmGmU mAmCmG mA-3′ (GGTGCATCGATGCAGGGGGGCGCAUUAUUACUCACGGUACGA; CpG ODN, C3 linkers, phosphorothioate, 2'OMe; (1)..(2) phosphorothioation; (2)..(3) phosphorothioation; (16)..(17) phosphorothioation; (17)..(18) phosphorothioation; (18)..(19) phosphorothioation; (19)..(20) phosphorothioation; (20)..(21) Five C3 carbon chain linkers, ((CH2)3)5; modified_base (21)..(21) cm; modified_base (22)..(22) gm; modified_base (23)..(23) cm; modified_base (24)..(24) 2′-O-Methyladenosine; modified_base (25)..(26) um; mod) [CpG-miR-126 inhibitor, anti-miR-126 oligodeoxynucleotide linked to a CpG ODN (TLR9 ligand) by 5 C3 linker units; phosphothioated, 2′OMe-modified]”: in the series on CML BM LT-HSCs, the cell cycling result is recorded as “increased cell cycling”. Moreover, in the series with WT B6 mice (setting [1]), the “numbers of ECs in the BM” value is recorded as “no significant differences”, the “numbers of LT-HSCs in the BM” value is “no significant differences”, the “numbers of WBCs in PB” value is given as “no significant differences” and the “numbers of mononuclear cells in the BM” value was “no significant differences”. Besides, in the series with WT B6 mice (setting [1]), the “numbers of platelets (PLT) in PB” value is listed as “no significant differences” and the “numbers of red blood cells (RBC) in PB” value is “increased”. Further, the “pre-clinical toxicity for normal hematopoiesis” value with WT B6 mice (overall conclusion, WT B6 mice treated for 3 weeks) is listed as “lacks pre-clinical toxicity for normal hematopoiesis”. For the same substance, the cell cycling result in the series with normal HSCs was “increased cell cycling”. In addition, the “miR-126 levels in total ECs, Sca-1+ECs and Sca-1-ECs from BM” value in the series with CML LSCs (CML mice treated 3 weeks, compared with scrRNA-treated mice) is listed as “significantly lower miR-126 levels”. The substance further displayed a mice that survived in the series on CML LSCs (CML mice, 3 weeks of treatment, followed 60 days after treatment discontinuation) of 50%. In addition, in the series with normal hematopoiesis, the “donor LT-HSC numbers in BM” value was “no significant differences” and the “donor cell engraftment in PB, BM or spleen” value is “no significant differences”. The cell cycling result in the series on normal BM LT-HSCs is “increased cell cycling”. The “miR-126 down-regulation in sorted LT-HSCs and ECs” value with miR-126 is recorded as “significant miR-126 down-regulation”. Besides, in the series with CML HSCs, the cell cycling entry is “increased cell cycling”.
